Measurements: patent US4714702A, “Quinazolinone derivative” (Tanabe Seiyaku Co., Ltd., priority 1983, dated 1987)

Tests used:
Format in all cases: in vivo, male mice (ddY-strain)
mice [1] = experiment: Acute toxicity (oral, 72 hours); conditions: for Safety margin (LD50 /ED50): potency ratio of the acute toxicity to the muscle relaxing activity, oral, mice
Experimental: (§1) A test compound dissolved or suspended in an aqueous 0.5% carboxymethylcellulose sodium salt solution was administered orally to a group of six male mice (ddY-strain, body weight: 18-20 g). The 50% lethal dose (LD50) of the test compound was calculated according to the probit method from the number of mice which died within a period of 72 hours after administration.

mice [2] = experiment: Muscle relaxing activity (the rotating rod method)
Experimental: A test compound dissolved or suspended in an aqueous 0.5% carboxymethylcellulose sodium salt solution was administered orally to a group of three male mice (ddY-strain, body weight: 18-20 g). After administration of the test compound, the mice were placed on a rotating rod (3.5 cm in diameter, 7.5 r.p.m.) at intervals, and the number of mice which fell out of the rod at least twice within one minute was counted. The 50% effective dose (ED50) of the test compound was calculated therefrom according to the probit method.

[3] = Acute toxicity (oral, 72 hours); conditions: mouse, in vivo; oral, mice, deaths within 72 hours, probit method
Experimental: as §1

| SMILES | Safety margin (LD50 /ED50) (mice [1]) | ED50 (mice [2]; Mus musculus, oral, mice, rotating rod, probit method) [mg/kg] | muscle relaxing activity, times stronger than that of Mephenesin (mice [2]; rotating rod method (mice), relative to Mephenesin) | LD50 at 72 h [3] [mg/kg] | safety margin, times as high as that of Mephenesin (mice [1]; acute toxicity to muscle relaxing activity ratio, relative to Mephenesin) |
| --- | --- | --- | --- | --- | --- |
| Cc1ccccc1OCC(O)CO (stereo not drawn) [Mephenesin, 3-(o-tolyloxy)-1,2-propanediol, reference compound] | 4.06 |  |  |  |  |
| Cc1cc(Cl)ccc1-n1c(CF)nc2ccc(N)cc2c1=O [Test compound 1, 2-fluoromethyl-3-(2-methyl-4-chlorophenyl)-6-amino-4(3H)-quinazolinone] | 51.6 | 13.6 | about 36.6 times | 702 | about 12.7 times |
